Test results taken from patent publication US12539292B2, “BRM targeting compounds and associated methods of use” (Arvinas Operations, Inc., priority 2018, dated 2026).
Where two headings read alike, the source gives them in different places.

Target: T1, BRM (Homo sapiens, UniProt P51531)
T1 construct: In-Cell Western Screen of BRM Degradation in SW1573 Cells; endogenous in cells; host or cells: SW1573
Experiment: In-cell Western screen of BRM degradation in SW1573 cells (Dmax and DC50)
Format: cell-based
Conditions: for Dmax: SW1573, % degraded, when tested at the top concentration of between 0.3 and 10 μM, read-out: BRM Dmax (%); for DC50: read-out: BRM DC50
Method in brief: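 SW1573 cells were treated with compound overnight (18-20 h; final DMSO 0.1%), then fixed in 4% PFA, permeabilized with Triton X-100 and blocked. BRM was detected by in-cell Western using 800 nm anti-rabbit and 680 nm anti-mouse secondaries, and Dmax and DC50 were derived from the LI-COR Odyssey signal.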

T1 sequence (P51531 whole entry): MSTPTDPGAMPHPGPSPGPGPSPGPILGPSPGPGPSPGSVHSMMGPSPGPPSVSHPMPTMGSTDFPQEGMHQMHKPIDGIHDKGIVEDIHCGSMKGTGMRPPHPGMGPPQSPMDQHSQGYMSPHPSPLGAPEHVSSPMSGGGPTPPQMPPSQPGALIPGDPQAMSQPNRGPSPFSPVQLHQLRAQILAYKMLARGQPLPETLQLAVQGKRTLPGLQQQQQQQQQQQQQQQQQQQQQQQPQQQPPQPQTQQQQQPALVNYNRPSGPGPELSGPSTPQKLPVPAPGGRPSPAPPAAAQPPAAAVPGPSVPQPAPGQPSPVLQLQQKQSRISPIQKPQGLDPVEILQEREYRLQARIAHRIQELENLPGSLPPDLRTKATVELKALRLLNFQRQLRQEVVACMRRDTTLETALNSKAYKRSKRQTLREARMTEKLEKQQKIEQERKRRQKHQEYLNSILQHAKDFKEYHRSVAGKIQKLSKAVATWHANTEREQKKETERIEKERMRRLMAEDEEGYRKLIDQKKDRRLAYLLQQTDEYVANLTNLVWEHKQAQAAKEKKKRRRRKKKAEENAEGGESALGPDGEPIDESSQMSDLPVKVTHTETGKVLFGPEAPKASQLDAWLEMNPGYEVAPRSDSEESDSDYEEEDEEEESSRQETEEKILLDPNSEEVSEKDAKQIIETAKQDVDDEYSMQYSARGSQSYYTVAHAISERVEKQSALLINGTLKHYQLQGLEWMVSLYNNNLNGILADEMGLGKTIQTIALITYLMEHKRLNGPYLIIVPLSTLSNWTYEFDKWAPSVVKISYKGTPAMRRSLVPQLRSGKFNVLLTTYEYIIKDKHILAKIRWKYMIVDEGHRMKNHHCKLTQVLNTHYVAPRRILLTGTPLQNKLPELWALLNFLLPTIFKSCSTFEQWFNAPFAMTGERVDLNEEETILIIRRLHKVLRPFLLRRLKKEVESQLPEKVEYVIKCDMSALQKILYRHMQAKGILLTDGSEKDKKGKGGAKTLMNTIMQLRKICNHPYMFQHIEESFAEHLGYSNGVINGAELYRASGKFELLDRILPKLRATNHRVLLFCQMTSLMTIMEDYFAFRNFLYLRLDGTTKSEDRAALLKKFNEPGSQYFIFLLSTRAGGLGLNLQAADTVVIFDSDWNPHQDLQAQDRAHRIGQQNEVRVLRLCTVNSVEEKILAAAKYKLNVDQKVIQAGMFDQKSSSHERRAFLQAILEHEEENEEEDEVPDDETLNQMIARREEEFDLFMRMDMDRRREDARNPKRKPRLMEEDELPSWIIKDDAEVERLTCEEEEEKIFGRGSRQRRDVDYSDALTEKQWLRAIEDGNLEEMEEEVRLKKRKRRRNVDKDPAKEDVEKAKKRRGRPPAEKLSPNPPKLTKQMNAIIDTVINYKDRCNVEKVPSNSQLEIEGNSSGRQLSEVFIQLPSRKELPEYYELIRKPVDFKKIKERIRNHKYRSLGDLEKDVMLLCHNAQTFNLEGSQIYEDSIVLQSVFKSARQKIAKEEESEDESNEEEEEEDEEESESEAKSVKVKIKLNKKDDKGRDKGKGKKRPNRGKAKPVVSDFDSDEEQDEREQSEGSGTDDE

Structure (SMILES)	Dmax [%]	DC50 (target protein degradation) [nM]	DC50 (BRM degradation) [nM]
Cc1ncsc1-c1ccc([C@H](C)NC(=O)[C@@H]2C[C@@H](O)CN2C(=O)[C@@H](c2cc(OCC[C@H]3CC[C@H](O[C@H]4C[C@H](Oc5cc(N6C7CCC6CN(c6cc(-c8ccccc8O)nnc6N)C7)ccn5)C4)CC3)no2)C(C)C)cc1 [compound 488, (2S,4R)-1-((2R)-2-(3-(2-((1R,4R)-4-((1r,3R)-3-((4-(3-(3-amino-6-(2-hydroxyphenyl)pyridazin-4-yl)-3,8-diazabicyclo[3.2.1]octan-8-yl)pyridin-2-yl)oxy)cyclobutoxy)cyclohexyl)ethoxy)isoxazol-5-yl)-3-methylbutanoyl)-4-hydroxy-N-((S)-1-(4-(4-methylthiazol-5-yl)phenyl)ethyl)pyrrolidine-2-carboxamide]	> 75	< 2.5	
Cc1ncsc1-c1ccc([C@H](C)NC(=O)[C@@H]2C[C@@H](O)CN2C(=O)[C@@H](c2cc(OCCN3CCC(O[C@H]4C[C@H](Oc5cc(N6C7CCC6CN(c6ccn8cc(-c9ccccc9O)nc8n6)C7)ccn5)C4)CC3)no2)C(C)C)cc1 [compound 489, (2S,4R)-4-hydroxy-1-((2R)-2-(3-(2-(4-((1r,3R)-3-((4-(3-(2-(2-hydroxyphenyl)imidazo[1,2-a]pyrimidin-7-yl)-3,8-diazabicyclo[3.2.1]octan-8-yl)pyridin-2-yl)oxy)cyclobutoxy)piperidin-1-yl)ethoxy)isoxazol-5-yl)-3-methylbutanoyl)-N-((S)-1-(4-(4-methylthiazol-5-yl)phenyl)ethyl)pyrrolidine-2-carboxamide]		> 30	
Cc1ncsc1-c1cnc([C@H](C)NC(=O)[C@@H]2C[C@@H](O)CN2C(=O)[C@H](c2cc(OCCN3CCC(O[C@H]4C[C@H](Oc5cc(N6C7CCC6CN(c6cc(-c8ccccc8O)nnc6N)C7)ccn5)C4)CC3)no2)C(C)C)cn1 [compound 490, (2S,4R)-1-((2S)-2-(3-(2-(4-((1r,3S)-3-((4-(3-(3-amino-6-(2-hydroxyphenyl)pyridazin-4-yl)-3,8-diazabicyclo[3.2.1]octan-8-yl)pyridin-2-yl)oxy)cyclobutoxy)piperidin-1-yl)ethoxy)isoxazol-5-yl)-3-methylbutanoyl)-4-hydroxy-N-((S)-1-(5-(4-methylthiazol-5-yl)pyrazin-2-yl)ethyl)pyrrolidine-2-carboxamide]		> 30	
Cc1ncsc1-c1cnc([C@H](C)NC(=O)[C@@H]2C[C@@H](O)CN2C(=O)[C@@H](c2cc(OCCN3CCC(O[C@H]4C[C@H](Oc5cc(N6C7CCC6CN(c6cc(-c8ccccc8O)nnc6N)C7)ccn5)C4)CC3)no2)C(C)C)cn1 [compound 491, (2S,4R)-1-((2R)-2-(3-(2-(4-((1r,3R)-3-((4-(3-(3-amino-6-(2-hydroxyphenyl)pyridazin-4-yl)-3,8-diazabicyclo[3.2.1]octan-8-yl)pyridin-2-yl)oxy)cyclobutoxy)piperidin-1-yl)ethoxy)isoxazol-5-yl)-3-methylbutanoyl)-4-hydroxy-N-((S)-1-(5-(4-methylthiazol-5-yl)pyrazin-2-yl)ethyl)pyrrolidine-2-carboxamide]	> 75		< 2.5
Cc1ncsc1-c1ccc([C@H](C)NC(=O)[C@@H]2C[C@@H](O)CN2C(=O)[C@H](c2cc(OCCN3CCC(O[C@H]4C[C@H](Nc5cc(N6C7CCC6CN(c6cc(-c8ccccc8O)nnc6N)C7)ccn5)C4)CC3)no2)C(C)C)cc1 [compound 492, (2S,4R)-1-((2S)-2-(3-(2-(4-((1r,3S)-3-((4-(3-(3-amino-6-(2-hydroxyphenyl)pyridazin-4-yl)-3,8-diazabicyclo[3.2.1]octan-8-yl)pyridin-2-yl)amino)cyclobutoxy)piperidin-1-yl)ethoxy)isoxazol-5-yl)-3-methylbutanoyl)-4-hydroxy-N-((S)-1-(4-(4-methylthiazol-5-yl)phenyl)ethyl)pyrrolidine-2-carboxamide]			> 30
Cc1ncsc1-c1ccc([C@H](C)NC(=O)[C@@H]2C[C@@H](O)CN2C(=O)[C@@H](c2cc(OCCN3CCC(O[C@H]4C[C@H](Nc5cc(N6C7CCC6CN(c6cc(-c8ccccc8O)nnc6N)C7)ccn5)C4)CC3)no2)C(C)C)cc1 [compound 493, (2S,4R)-1-((2R)-2-(3-(2-(4-((1r,3R)-3-((4-(3-(3-amino-6-(2-hydroxyphenyl)pyridazin-4-yl)-3,8-diazabicyclo[3.2.1]octan-8-yl)pyridin-2-yl)amino)cyclobutoxy)piperidin-1-yl)ethoxy)isoxazol-5-yl)-3-methylbutanoyl)-4-hydroxy-N-((S)-1-(4-(4-methylthiazol-5-yl)phenyl)ethyl)pyrrolidine-2-carboxamide]	> 75		< 2.5
Cc1cc([C@@H](C(=O)N2C[C@H](O)C[C@H]2C(=O)N[C@@H](C)c2ccc(-c3scnc3C)cc2)[C@@H](C)COCCCOc2cc(N3C4CCC3CN(c3cc(-c5ccccc5O)nnc3N)C4)ccn2)on1 [compound 494, (2S,4R)-1-((2S,3R)-4-(3-((4-(3-(3-amino-6-(2-hydroxyphenyl)pyridazin-4-yl)-3,8-diazabicyclo[3.2.1]octan-8-yl)pyridin-2-yl)oxy)propoxy)-3-methyl-2-(3-methylisoxazol-5-yl)butanoyl)-4-hydroxy-N-((S)-1-(4-(4-methylthiazol-5-yl)phenyl)ethyl)pyrrolidine-2-carboxamide]	> 75		< 2.5
Cc1cc([C@H](C(=O)N2C[C@H](O)C[C@H]2C(=O)N[C@@H](C)c2ccc(-c3scnc3C)cc2)[C@@H](C)COCCCOc2cc(N3C4CCC3CN(c3cc(-c5ccccc5O)nnc3N)C4)ccn2)on1 [compound 495, (2S,4R)-1-((2R,3R)-4-(3-((4-(3-(3-amino-6-(2-hydroxyphenyl)pyridazin-4-yl)-3,8-diazabicyclo[3.2.1]octan-8-yl)pyridin-2-yl)oxy)propoxy)-3-methyl-2-(3-methylisoxazol-5-yl)butanoyl)-4-hydroxy-N-((S)-1-(4-(4-methylthiazol-5-yl)phenyl)ethyl)pyrrolidine-2-carboxamide]			> 30
Cc1ncsc1-c1ccc([C@H](C)NC(=O)[C@@H]2C[C@@H](O)CN2C(=O)[C@@H](c2cc(N3CCC(CN4CCC(O[C@H]5C[C@H](C#C[C@@H](C)n6cc(-c7cc(-c8ccccc8O)nnc7N)cn6)C5)CC4)CC3)no2)C(C)C)cc1 [compound 496, (2S,4R)-1-((R)-2-(3-(4-((4-((1R,3r)-3-((R)-3-(4-(3-amino-6-(2-hydroxyphenyl)pyridazin-4-yl)-1H-pyrazol-1-yl)but-1-yn-1-yl)cyclobutoxy)piperidin-1-yl)methyl)piperidin-1-yl)isoxazol-5-yl)-3-methylbutanoyl)-4-hydroxy-N-((S)-1-(4-(4-methylthiazol-5-yl)phenyl)ethyl)pyrrolidine-2-carboxamide]	> 75		< 2.5
Cc1ncsc1-c1ccc([C@H](C)NC(=O)[C@@H]2C[C@@H](O)CN2C(=O)[C@@H](c2cc(N3CCC(CN4CCC(O[C@H]5C[C@H](C#C[C@H](C)n6cc(-c7cc(-c8ccccc8O)nnc7N)cn6)C5)CC4)CC3)no2)C(C)C)cc1 [compound 497, (2S,4R)-1-((R)-2-(3-(4-((4-((1S,3r)-3-((S)-3-(4-(3-amino-6-(2-hydroxyphenyl)pyridazin-4-yl)-1H-pyrazol-1-yl)but-1-yn-1-yl)cyclobutoxy)piperidin-1-yl)methyl)piperidin-1-yl)isoxazol-5-yl)-3-methylbutanoyl)-4-hydroxy-N-((S)-1-(4-(4-methylthiazol-5-yl)phenyl)ethyl)pyrrolidine-2-carboxamide]	> 75		< 2.5
Cc1ncsc1-c1ccc([C@H](C)NC(=O)[C@@H]2C[C@@H](O)CN2C(=O)[C@H](c2cc(N3CCN(C[C@H]4C[C@H](Oc5cc(N6C7CCC6CN(c6cc(-c8ccccc8O)nnc6N)C7)ccn5)C4)CC3)no2)C(C)C)cc1 [compound 498, (2S,4R)-1-((2S)-2-(3-(4-(((1r,3S)-3-((4-(3-(3-amino-6-(2-hydroxyphenyl)pyridazin-4-yl)-3,8-diazabicyclo[3.2.1]octan-8-yl)pyridin-2-yl)oxy)cyclobutyl)methyl)piperazin-1-yl)isoxazol-5-yl)-3-methylbutanoyl)-4-hydroxy-N-((S)-1-(4-(4-methylthiazol-5-yl)phenyl)ethyl)pyrrolidine-2-carboxamide]			> 30
Cc1ncsc1-c1ccc([C@H](C)NC(=O)[C@@H]2C[C@@H](O)CN2C(=O)[C@@H](c2cc(N3CCN(C[C@H]4C[C@H](Oc5cc(N6C7CCC6CN(c6cc(-c8ccccc8O)nnc6N)C7)ccn5)C4)CC3)no2)C(C)C)cc1 [compound 499, (2S,4R)-1-((2R)-2-(3-(4-(((1r,3R)-3-((4-(3-(3-amino-6-(2-hydroxyphenyl)pyridazin-4-yl)-3,8-diazabicyclo[3.2.1]octan-8-yl)pyridin-2-yl)oxy)cyclobutyl)methyl)piperazin-1-yl)isoxazol-5-yl)-3-methylbutanoyl)-4-hydroxy-N-((S)-1-(4-(4-methylthiazol-5-yl)phenyl)ethyl)pyrrolidine-2-carboxamide]	> 75		< 2.5
Cc1ncsc1-c1ncc([C@H](C)NC(=O)[C@@H]2C[C@@H](O)CN2C(=O)C(c2cc(OCCN3CCC(O[C@H]4C[C@H](Oc5cc(N6C7CCC6CN(c6cc(-c8ccccc8O)nnc6N)C7)ccn5)C4)CC3)no2)C(C)C)cc1F (stereo partly drawn) [compound 500, (2S,4R)-1-(2-(3-(2-(4-((1r,3r)-3-((4-(3-(3-amino-6-(2-hydroxyphenyl)pyridazin-4-yl)-3,8-diazabicyclo[3.2.1]octan-8-yl)pyridin-2-yl)oxy)cyclobutoxy)piperidin-1-yl)ethoxy)isoxazol-5-yl)-3-methylbutanoyl)-N-((S)-1-(5-fluoro-6-(4-methylthiazol-5-yl)pyridin-3-yl)ethyl)-4-hydroxypyrrolidine-2-carboxamide]			> 30
